# Experimental data published in the supplement of paper PMC4862054.
# Tested on: MCF-10A
# Assay: normalised response (% of control), CellTiter-Glo; higher = more viable cells (100 = DMSO, 0 = benzethonium chloride kill control)
# Conditions: incubation time: 72 h
# Summary of the method: (§1)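 Breast cancer cell lines in 20 µl suspension were added to 384-well plates containing compound at 5 concentrations, spaced in 10-fold steps across a 10,000-fold range chosen for each compound, and incubated for 72 h. CellTox Green fluorescence was read at 485/520 nm, followed by CellTiter-Glo luminescence after 10 min at room temperature. Signals on each plate were normalised so that 0.1 % DMSO equals 100 and a positive kill control equals 0. Every value in the table is the normalised signal at one concentration of the series.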
row,Compound,normalised response [%]
1,CN(C)CCN1C(=O)c2cccc3cc(N)cc(c23)C1=O [Amonafide] (1000 nM),92.2

# Tested on: HCC1937
# Assay: as above
# Conditions: incubation time: 72 h
# Summary of the method: as §1
row,Compound,normalised response [%]
1,c1ccc([C@H]2CN3CCSC3=N2)cc1 [Levamisole] (1000 nM),99.6
2,CN(C)C[C@@H]1CCn2cc(c3ccccc32)C2=C(C(=O)NC2=O)c2cn(c3ccccc23)CCO1 [Ruboxistaurin] (1000 nM),86
3,CCCCCCCCc1ccc(CCC(N)(CO)CO)cc1 [Fingolimod] (1000 nM),103
4,CNNCc1ccc(C(=O)NC(C)C)cc1 [Procarbazine] (1000 nM),105
5,O=C1NC(=O)[C@@H](c2cn3c4c(cccc24)CCC3)[C@@H]1c1c[nH]c2ccccc12 [Tivantinib] (100 nM),94.6
6,O=C(O)CCCc1ccc(N(CCCl)CCCl)cc1 [Chlorambucil] (1000 nM),95
7,Nc1ncnc2c1c(COc1cccc(Cl)c1)nn2C1CCOCC1 (1000 nM),103
8,Nc1nc(OCc2cc(Br)cs2)c2[nH]cnc2n1 [Lomeguatrib] (1000 nM),97.8
9,CN(C)CCN1C(=O)c2cccc3cc(N)cc(c23)C1=O [Amonafide] (1000 nM),89.9

# Tested on: MFM-223
# Assay: normalised response (% of control), CellTox Green; higher = less cell death (100 = DMSO, 0 = benzethonium chloride kill control)
# Conditions: incubation time: 72 h
# Summary of the method: as §1
row,Compound,normalised response [%]
1,c1ccc([C@H]2CN3CCSC3=N2)cc1 [Levamisole] (1000 nM),102
2,CN(C)C[C@@H]1CCn2cc(c3ccccc32)C2=C(C(=O)NC2=O)c2cn(c3ccccc23)CCO1 [Ruboxistaurin] (1000 nM),79.2
3,CCCCCCCCc1ccc(CCC(N)(CO)CO)cc1 [Fingolimod] (1000 nM),102
4,O=C1NC(=O)[C@@H](c2cn3c4c(cccc24)CCC3)[C@@H]1c1c[nH]c2ccccc12 [Tivantinib] (100 nM),89.4
5,O=C(O)CCCc1ccc(N(CCCl)CCCl)cc1 [Chlorambucil] (1000 nM),95.5
6,Nc1ncnc2c1c(COc1cccc(Cl)c1)nn2C1CCOCC1 (1000 nM),103
7,Nc1nc(OCc2cc(Br)cs2)c2[nH]cnc2n1 [Lomeguatrib] (1000 nM),82.9
8,CN(C)CCN1C(=O)c2cccc3cc(N)cc(c23)C1=O [Amonafide] (1000 nM),97.3

# Tested on: MDA-MB-231
# Assay: as above
# Conditions: incubation time: 72 h
# Summary of the method: as §1
row,Compound,normalised response [%]
1,c1ccc([C@H]2CN3CCSC3=N2)cc1 [Levamisole] (1000 nM),117
2,CN(C)C[C@@H]1CCn2cc(c3ccccc32)C2=C(C(=O)NC2=O)c2cn(c3ccccc23)CCO1 [Ruboxistaurin] (1000 nM),97.2
3,CCCCCCCCc1ccc(CCC(N)(CO)CO)cc1 [Fingolimod] (1000 nM),122
4,CNNCc1ccc(C(=O)NC(C)C)cc1 [Procarbazine] (1000 nM),104
5,O=C1NC(=O)[C@@H](c2cn3c4c(cccc24)CCC3)[C@@H]1c1c[nH]c2ccccc12 [Tivantinib] (100 nM),110
6,O=C(O)CCCc1ccc(N(CCCl)CCCl)cc1 [Chlorambucil] (1000 nM),103
7,Nc1ncnc2c1c(COc1cccc(Cl)c1)nn2C1CCOCC1 (1000 nM),115
8,Nc1nc(OCc2cc(Br)cs2)c2[nH]cnc2n1 [Lomeguatrib] (1000 nM),104
9,CN(C)CCN1C(=O)c2cccc3cc(N)cc(c23)C1=O [Amonafide] (1000 nM),122

# Tested on: Hs578T
# Assay: as above
# Conditions: incubation time: 72 h
# Summary of the method: as §1
row,Compound,normalised response [%]
1,CCCCCCCCc1ccc(CCC(N)(CO)CO)cc1 [Fingolimod] (1000 nM),106
2,CNNCc1ccc(C(=O)NC(C)C)cc1 [Procarbazine] (1000 nM),101
3,O=C1NC(=O)[C@@H](c2cn3c4c(cccc24)CCC3)[C@@H]1c1c[nH]c2ccccc12 [Tivantinib] (100 nM),75
4,O=C(O)CCCc1ccc(N(CCCl)CCCl)cc1 [Chlorambucil] (1000 nM),108
5,Nc1ncnc2c1c(COc1cccc(Cl)c1)nn2C1CCOCC1 (1000 nM),104
6,Nc1nc(OCc2cc(Br)cs2)c2[nH]cnc2n1 [Lomeguatrib] (1000 nM),100
7,CN(C)CCN1C(=O)c2cccc3cc(N)cc(c23)C1=O [Amonafide] (1000 nM),113

# Tested on: CAL-148
# Assay: as above
# Conditions: incubation time: 72 h
# Summary of the method: as §1
row,Compound,normalised response [%]
1,c1ccc([C@H]2CN3CCSC3=N2)cc1 [Levamisole] (1000 nM),107
2,CN(C)C[C@@H]1CCn2cc(c3ccccc32)C2=C(C(=O)NC2=O)c2cn(c3ccccc23)CCO1 [Ruboxistaurin] (1000 nM),55
3,CCCCCCCCc1ccc(CCC(N)(CO)CO)cc1 [Fingolimod] (1000 nM),107
4,CNNCc1ccc(C(=O)NC(C)C)cc1 [Procarbazine] (1000 nM),104
5,O=C(O)CCCc1ccc(N(CCCl)CCCl)cc1 [Chlorambucil] (1000 nM),104
6,Nc1ncnc2c1c(COc1cccc(Cl)c1)nn2C1CCOCC1 (1000 nM),105
7,Nc1nc(OCc2cc(Br)cs2)c2[nH]cnc2n1 [Lomeguatrib] (1000 nM),99.9
8,CN(C)CCN1C(=O)c2cccc3cc(N)cc(c23)C1=O [Amonafide] (1000 nM),93.9

# Tested on: HCC1599
# Assay: as above
# Conditions: incubation time: 72 h
# Summary of the method: as §1
row,Compound,normalised response [%]
1,c1ccc([C@H]2CN3CCSC3=N2)cc1 [Levamisole] (1000 nM),104
2,CN(C)C[C@@H]1CCn2cc(c3ccccc32)C2=C(C(=O)NC2=O)c2cn(c3ccccc23)CCO1 [Ruboxistaurin] (1000 nM),95
3,CCCCCCCCc1ccc(CCC(N)(CO)CO)cc1 [Fingolimod] (1000 nM),106
4,CNNCc1ccc(C(=O)NC(C)C)cc1 [Procarbazine] (1000 nM),95
5,O=C1NC(=O)[C@@H](c2cn3c4c(cccc24)CCC3)[C@@H]1c1c[nH]c2ccccc12 [Tivantinib] (100 nM),85.6
6,O=C(O)CCCc1ccc(N(CCCl)CCCl)cc1 [Chlorambucil] (1000 nM),96.9
7,Nc1ncnc2c1c(COc1cccc(Cl)c1)nn2C1CCOCC1 (1000 nM),74.4
8,Nc1nc(OCc2cc(Br)cs2)c2[nH]cnc2n1 [Lomeguatrib] (1000 nM),93.2
9,CN(C)CCN1C(=O)c2cccc3cc(N)cc(c23)C1=O [Amonafide] (1000 nM),102

# Tested on: CAL-51
# Assay: as above
# Conditions: incubation time: 72 h
# Summary of the method: as §1
row,Compound,normalised response [%]
1,c1ccc([C@H]2CN3CCSC3=N2)cc1 [Levamisole] (1000 nM),103
2,CN(C)C[C@@H]1CCn2cc(c3ccccc32)C2=C(C(=O)NC2=O)c2cn(c3ccccc23)CCO1 [Ruboxistaurin] (1000 nM),78.1
3,CCCCCCCCc1ccc(CCC(N)(CO)CO)cc1 [Fingolimod] (1000 nM),106
4,CNNCc1ccc(C(=O)NC(C)C)cc1 [Procarbazine] (1000 nM),103
5,O=C1NC(=O)[C@@H](c2cn3c4c(cccc24)CCC3)[C@@H]1c1c[nH]c2ccccc12 [Tivantinib] (100 nM),103
6,O=C(O)CCCc1ccc(N(CCCl)CCCl)cc1 [Chlorambucil] (1000 nM),113
7,Nc1ncnc2c1c(COc1cccc(Cl)c1)nn2C1CCOCC1 (1000 nM),118
8,Nc1nc(OCc2cc(Br)cs2)c2[nH]cnc2n1 [Lomeguatrib] (1000 nM),104
9,CN(C)CCN1C(=O)c2cccc3cc(N)cc(c23)C1=O [Amonafide] (1000 nM),106

# Tested on: BT-549
# Assay: as above
# Conditions: incubation time: 72 h
# Summary of the method: as §1
row,Compound,normalised response [%]
1,c1ccc([C@H]2CN3CCSC3=N2)cc1 [Levamisole] (1000 nM),120
2,CN(C)C[C@@H]1CCn2cc(c3ccccc32)C2=C(C(=O)NC2=O)c2cn(c3ccccc23)CCO1 [Ruboxistaurin] (1000 nM),106
3,CCCCCCCCc1ccc(CCC(N)(CO)CO)cc1 [Fingolimod] (1000 nM),131
4,CNNCc1ccc(C(=O)NC(C)C)cc1 [Procarbazine] (1000 nM),107
5,O=C1NC(=O)[C@@H](c2cn3c4c(cccc24)CCC3)[C@@H]1c1c[nH]c2ccccc12 [Tivantinib] (100 nM),106
6,O=C(O)CCCc1ccc(N(CCCl)CCCl)cc1 [Chlorambucil] (1000 nM),115
7,Nc1ncnc2c1c(COc1cccc(Cl)c1)nn2C1CCOCC1 (1000 nM),96.5
8,Nc1nc(OCc2cc(Br)cs2)c2[nH]cnc2n1 [Lomeguatrib] (1000 nM),108
9,CN(C)CCN1C(=O)c2cccc3cc(N)cc(c23)C1=O [Amonafide] (1000 nM),130

# Tested on: DU-4475
# Assay: as above
# Conditions: incubation time: 72 h
# Summary of the method: as §1
row,Compound,normalised response [%]
1,c1ccc([C@H]2CN3CCSC3=N2)cc1 [Levamisole] (1000 nM),106
2,CN(C)C[C@@H]1CCn2cc(c3ccccc32)C2=C(C(=O)NC2=O)c2cn(c3ccccc23)CCO1 [Ruboxistaurin] (1000 nM),100
3,CCCCCCCCc1ccc(CCC(N)(CO)CO)cc1 [Fingolimod] (1000 nM),103
4,CNNCc1ccc(C(=O)NC(C)C)cc1 [Procarbazine] (1000 nM),104
5,O=C1NC(=O)[C@@H](c2cn3c4c(cccc24)CCC3)[C@@H]1c1c[nH]c2ccccc12 [Tivantinib] (100 nM),98.7
6,O=C(O)CCCc1ccc(N(CCCl)CCCl)cc1 [Chlorambucil] (1000 nM),102
7,Nc1ncnc2c1c(COc1cccc(Cl)c1)nn2C1CCOCC1 (1000 nM),108
8,Nc1nc(OCc2cc(Br)cs2)c2[nH]cnc2n1 [Lomeguatrib] (1000 nM),101
9,CN(C)CCN1C(=O)c2cccc3cc(N)cc(c23)C1=O [Amonafide] (1000 nM),96.7

# Tested on: HDQ-P1
# Assay: as above
# Conditions: incubation time: 72 h
# Summary of the method: as §1
row,Compound,normalised response [%]
1,c1ccc([C@H]2CN3CCSC3=N2)cc1 [Levamisole] (1000 nM),75.4
2,CN(C)C[C@@H]1CCn2cc(c3ccccc32)C2=C(C(=O)NC2=O)c2cn(c3ccccc23)CCO1 [Ruboxistaurin] (1000 nM),98.5
